# Assay results from patent US9255072B2, “Pyrazole compounds and thiazole compounds as protein kinases inhibitors” (National Health Rsearch Institutes, priority 2011, dated 2016).
# Read-outs that look alike come from different tables or passages of the source.
# Tests used:
# [1] = tested on: MOLM-13 cell; test: MTS cell viability assay; format: cell-based; conditions: Homo sapiens, MOLM-13, 72 h, table of representative values
# From the text: The leukemias cell lines MOLM-13, MV4:11, RSV4:11, MOLT-4, U937, and K562 were purchased from American Type Culture Collection (ATCC, Manassas, Va., USA). The non-leukemias cell lines HCC827, H1975, NCIH460, A431, Huh7, SF268, MCF-7, HCT-116, and normal human fetal fibroblast cell line Detriot 551 were purchased from American Type Culture Collection (ATCC, Manassas, Va., USA). All leukemias cell lines and HCC827, H1975, NCIH460, A431 were maintained in RPMI 1640 medium supplemented with 10% fetal bovine serum (FBS), 10 U/ml penicillin, and 10 µg/ml streptomycin at 37° C. and 5% CO2. The cell lines Huh7, SF268, MCF-7, and Detroit 551 were cultured in DMEM medium supplemented with 10% FBS, 0.01% nonessential amino acids, 10 U/ml penicillin, and 10 µg/ml streptomycin. HCT-116 were cultured in McCoy's 5A medium supplemented with 10% FBS, 0.01% nonessential amino acids, 10 U/ml penicillin, and 10 µg/ml streptomycin. To determine cell viability after drug treatment, assays were performed by seeding 10,000 cells (leukemias cell lines) or 2,500 cells (non-leukemias cell lines) per well in a 96-well culture plate. After 16 h, cells were then treated with vehicle or various concentrations of compound in medium for 72 h. Viable cells were quantitated using the MTS method (Promega, Madison, Wis., USA) according to the manufacturer's recommended protocol. The results were determined by measuring the absorbance at 490 nm using a plate reader (Victor2; PerkinElmer, Shelton, Conn., USA).
# [2] = molecular target: T1, Aurora A (Homo sapiens, UniProt O14965); test: Aurora kinase A Kinase-Glo kinase assay; format: biochemical
# T1 construct: GST-Aurora A (residues S123-S401); GST (N); made in house; host or cells: Sf9 insect cells
# T1 sequence (O14965 123-401): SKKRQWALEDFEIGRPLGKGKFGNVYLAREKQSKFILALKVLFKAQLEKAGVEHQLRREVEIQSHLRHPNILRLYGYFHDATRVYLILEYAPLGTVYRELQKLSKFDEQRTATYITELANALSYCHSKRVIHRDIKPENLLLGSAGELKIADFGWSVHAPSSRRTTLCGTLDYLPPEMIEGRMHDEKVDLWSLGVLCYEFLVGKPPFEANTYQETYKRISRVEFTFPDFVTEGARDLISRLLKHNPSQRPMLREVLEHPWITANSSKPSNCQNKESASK
# Method: The recombinant GST-Aurora A (residues S123-S401) containing kinase domain were expressed in Sf9 insect cells. The kinase assay were carried out in 96-well plates with tested compound in a final volume of 50 μl reaction at 37° C. for 90 minutes with following components: 50 mM Tris-HCl pH 7.4, 10 mM NaCl, 10 mM MgCl2, 0.01% BSA, 5 μM ATP, 1 mM DTT and 15 μM tetra(LRRASLG) peptide, and 150 ng recombinant Aurora A. Following incubation, 50 μl Kinase-Glo Plus Reagent (Promega, Madison, Wis., USA) was added to each well and the mixture was incubated at 25° C. for 20 min. A 70-μL aliquot of each reaction mixture was transferred to a black microtiter plate and the luminescence was measured on Wallac Vector 1420 multilabel counter (PerkinElmer, Shelton, Conn., USA).
# [3] = molecular target: T2, wt-FLT3 (Homo sapiens, UniProt P36888); test: FLT3 WT Kinase-Glo assay; format: biochemical
# T2 construct: FLT3 kinase catalytic domain (residues Y567˜S993); made in house; host or cells: Sf9 insect cells (baculovirus, pBac-PAK8-GST-FLT3-KD plasmid)
# T2 sequence (P36888 567-993): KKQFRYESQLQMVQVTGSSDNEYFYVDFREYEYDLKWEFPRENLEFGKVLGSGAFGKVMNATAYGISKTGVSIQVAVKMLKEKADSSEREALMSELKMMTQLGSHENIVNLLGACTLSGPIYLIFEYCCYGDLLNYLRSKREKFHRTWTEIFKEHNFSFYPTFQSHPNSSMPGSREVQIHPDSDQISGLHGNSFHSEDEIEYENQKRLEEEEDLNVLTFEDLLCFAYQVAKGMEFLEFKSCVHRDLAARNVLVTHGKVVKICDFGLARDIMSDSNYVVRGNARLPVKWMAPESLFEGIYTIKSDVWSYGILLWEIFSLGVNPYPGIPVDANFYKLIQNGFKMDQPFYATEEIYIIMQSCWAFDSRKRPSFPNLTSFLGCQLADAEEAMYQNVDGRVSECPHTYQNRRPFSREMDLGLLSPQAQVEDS
# In short: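 GST-tagged wild-type FLT3 kinase domain (residues Y567–S993), expressed in Sf9 cells, was used. After the kinase reaction, remaining ATP was detected by Kinase-Glo Plus luminescence following 20 min at 25 °C.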
# [4] = molecular target: T3, VEGFR2 (Homo sapiens, UniProt P35968); test: VEGFR2 Kinase-Glo kinase assay; format: biochemical
# T3 construct: GST-VEGFR2 (residues V789-V1356); GST (N); made in house; host or cells: Sf9 insect cells
# T3 sequence (P35968 789-1356): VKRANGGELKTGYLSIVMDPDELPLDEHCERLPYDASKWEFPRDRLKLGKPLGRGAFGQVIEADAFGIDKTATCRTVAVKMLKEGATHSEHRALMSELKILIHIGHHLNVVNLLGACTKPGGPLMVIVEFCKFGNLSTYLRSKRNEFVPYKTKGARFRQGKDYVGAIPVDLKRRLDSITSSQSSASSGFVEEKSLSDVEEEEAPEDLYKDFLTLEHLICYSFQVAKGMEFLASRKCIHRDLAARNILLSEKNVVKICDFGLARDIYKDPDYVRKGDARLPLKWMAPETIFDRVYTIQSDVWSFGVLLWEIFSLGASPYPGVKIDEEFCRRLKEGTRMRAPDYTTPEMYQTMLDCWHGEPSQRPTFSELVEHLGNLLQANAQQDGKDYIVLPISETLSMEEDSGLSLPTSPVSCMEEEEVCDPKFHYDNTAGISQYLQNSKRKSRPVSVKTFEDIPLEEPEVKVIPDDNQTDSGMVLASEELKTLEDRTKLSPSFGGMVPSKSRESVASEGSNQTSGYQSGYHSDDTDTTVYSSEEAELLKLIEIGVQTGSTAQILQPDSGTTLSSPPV
# [5] = Aurora A assay, 5 μM ATP, bound in nM, read-out: IC50
# [6] = Aurora A assay, 5 μM ATP, bound in μM, read-out: IC50
# [7] = table of representative values, read-out: IC50 (nM) Aurora A
# [8] = FLT3 WT Kinase-Glo, 1 μM ATP, read-out: IC50
# [9] = table of representative values, read-out: IC50 (nM) wt-FLT3
# [10] = VEGFR2 assay, 1 μM ATP, bound in μM, read-out: IC50
# [11] = VEGFR2 assay, 1 μM ATP, ranges in nM, read-out: IC50
# [12] = table of representative values, read-out: IC50 (nM) VEGFR2
SMILES,GI50 [1],"IC50 [2, 5]","IC50 [2, 6]","IC50 [2, 7]","IC50 [3, 8]","IC50 [3, 9]","IC50 [4, 10]","IC50 [4, 11]","IC50 [4, 12]"
"CCc1cc(NC(=O)Nc2ccc(-c3cnc(Nc4cc(N5CCN(CC)CC5)nc(C)n4)s3)cc2)no1 [Compound 112, N-(5-ethyl-3-isoxazolyl)-N′-[4-(2-[6-(4-ethylpiperazino)-2-methyl-4-pyrimidinyl]amino-1,3-thiazol-5-yl)phenyl]urea]",2 nM,< 200 nM,< 1000 nM,32 nM,1 to 20 nM,15 nM,< 1 µM,0.001 to 0.055 µM,0.025 µM
"CCc1cc(NC(=O)Nc2ccc(-c3cnc(Nc4cc(N5CCC(N)C5)nc(C)n4)s3)cc2)no1 (stereo not drawn) [Compound 119, N-[4-(2-[6-(3-aminotetrahydro-1H-1-pyrrolyl)-2-methyl-4-pyrimidinyl]amino-1,3-thiazol-5-yl)phenyl]N′-(5-ethyl-3-isoxazolyl)urea]",3 nM,< 200 nM,< 1000 nM,38 nM,1 to 20 nM,14 nM,< 1 µM,0.001 to 0.055 µM,0.007 µM
